Experimental data taken from patent US10561638B2, “Methods for treating dependence” (Biotie Therapies, Inc., priority 2007, dated 2020).
Entries after “also recorded” stand apart in the source; their conditions may differ.

Columns and labels:
[1] = Phase I single- and multiple-dose studies in healthy men; assay type: in vivo, human
[2] = system: thyroid uptake of 123I; experiment: Thyroid uptake of 123I in humans; assay type: in vivo, human
[3] = biological target: 5-HT1A serotonin receptors (Homo sapiens, UniProt P08908); experiment: Radioligand binding assay
Sequence of 5-HT1A serotonin receptors (P08908 whole entry): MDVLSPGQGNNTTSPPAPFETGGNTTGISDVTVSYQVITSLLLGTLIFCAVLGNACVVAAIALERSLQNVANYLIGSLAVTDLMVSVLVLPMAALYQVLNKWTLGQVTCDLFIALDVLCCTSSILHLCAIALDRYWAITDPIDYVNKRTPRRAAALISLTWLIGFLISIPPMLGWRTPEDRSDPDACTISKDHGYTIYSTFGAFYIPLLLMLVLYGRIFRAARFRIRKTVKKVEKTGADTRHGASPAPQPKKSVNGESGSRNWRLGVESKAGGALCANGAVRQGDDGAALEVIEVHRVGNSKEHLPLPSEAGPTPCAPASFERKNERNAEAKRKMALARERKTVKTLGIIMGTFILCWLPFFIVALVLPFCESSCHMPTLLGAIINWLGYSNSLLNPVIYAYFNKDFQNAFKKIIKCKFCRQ
Description: (§1) The activity of nepicastat at twelve selected enzymes and receptors was determined using established assays. Binding data were analyzed by iterative curve-fitting to a four parameter logistic equation. Ki values were calculated from IC50 values using the Cheng-Prusoff equation. Enzyme inhibitory activity was expressed as IC50 (concentration required to produce 50% inhibition of enzyme activity).
(§2) The activity of nepicastat at eleven different enzymes was determined using established assays. The affinity of nepicastat for thirteen selected receptors was determined by radioligand binding assays using standard filtration techniques and membrane preparations. Binding data were analyzed by iterative curve fitting to a four parameter logistic equation. Ki values were calculated using the Cheng-Prusoff equation.
(§3) The binding affinity for nepicastat was screened at selected receptors. […] Thus nepicastat and its primary metabolite were not potent inhibitors for the receptors listed above.

[4] = biological target: 5-HT2A serotonin receptors (Homo sapiens, UniProt P28223); experiment: Radioligand binding assay
Sequence of 5-HT2A serotonin receptors (P28223 whole entry): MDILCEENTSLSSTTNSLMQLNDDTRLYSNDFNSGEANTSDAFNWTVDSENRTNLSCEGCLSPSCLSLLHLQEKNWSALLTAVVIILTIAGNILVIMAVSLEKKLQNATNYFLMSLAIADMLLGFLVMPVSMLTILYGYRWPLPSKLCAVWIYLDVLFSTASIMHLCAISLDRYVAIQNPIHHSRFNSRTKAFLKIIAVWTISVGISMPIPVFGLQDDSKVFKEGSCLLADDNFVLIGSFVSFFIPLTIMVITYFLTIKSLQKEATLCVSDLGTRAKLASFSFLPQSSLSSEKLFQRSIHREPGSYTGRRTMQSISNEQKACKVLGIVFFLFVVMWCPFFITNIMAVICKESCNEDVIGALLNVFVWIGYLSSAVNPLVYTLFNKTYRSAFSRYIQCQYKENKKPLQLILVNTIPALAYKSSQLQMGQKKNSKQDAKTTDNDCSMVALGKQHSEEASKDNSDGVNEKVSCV
Description: as §1, §2, §3

[5] = biological target: 5-HT2C serotonin receptors (Homo sapiens, UniProt P28335); experiment: Radioligand binding assay
Sequence of 5-HT2C serotonin receptors (P28335 33-458): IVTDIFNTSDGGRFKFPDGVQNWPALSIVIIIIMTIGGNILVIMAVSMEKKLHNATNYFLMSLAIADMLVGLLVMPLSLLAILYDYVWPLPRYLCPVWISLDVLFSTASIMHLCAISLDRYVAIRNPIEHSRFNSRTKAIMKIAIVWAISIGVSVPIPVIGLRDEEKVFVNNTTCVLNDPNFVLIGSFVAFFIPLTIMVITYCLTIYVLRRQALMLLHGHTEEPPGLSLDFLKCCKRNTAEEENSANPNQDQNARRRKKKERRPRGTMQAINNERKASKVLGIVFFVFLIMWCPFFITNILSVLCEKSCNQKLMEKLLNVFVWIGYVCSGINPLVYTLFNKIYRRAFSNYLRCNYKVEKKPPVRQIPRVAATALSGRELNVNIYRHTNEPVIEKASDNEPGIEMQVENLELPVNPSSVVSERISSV
Description: as §1, §2, §3

[6] = biological target: D1 dopamine receptors (Homo sapiens, UniProt P21728); experiment: Radioligand binding assay
Sequence of D1 dopamine receptors (P21728 whole entry): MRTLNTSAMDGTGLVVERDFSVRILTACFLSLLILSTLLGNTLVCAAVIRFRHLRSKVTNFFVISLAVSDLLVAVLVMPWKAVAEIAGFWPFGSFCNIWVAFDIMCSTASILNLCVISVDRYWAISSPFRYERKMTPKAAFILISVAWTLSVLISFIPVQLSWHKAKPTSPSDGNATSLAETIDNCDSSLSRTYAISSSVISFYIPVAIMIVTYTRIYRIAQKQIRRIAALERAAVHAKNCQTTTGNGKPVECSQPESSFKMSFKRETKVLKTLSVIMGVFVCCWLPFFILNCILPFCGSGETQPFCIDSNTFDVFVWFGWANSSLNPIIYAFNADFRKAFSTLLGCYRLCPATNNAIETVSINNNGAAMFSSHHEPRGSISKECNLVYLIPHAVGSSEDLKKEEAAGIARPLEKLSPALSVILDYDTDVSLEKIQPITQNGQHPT
Description: as §1, §2, §3

[7] = biological target: D2 dopamine receptors (Homo sapiens, UniProt P14416); experiment: Radioligand binding assay
Sequence of D2 dopamine receptors (P14416 whole entry): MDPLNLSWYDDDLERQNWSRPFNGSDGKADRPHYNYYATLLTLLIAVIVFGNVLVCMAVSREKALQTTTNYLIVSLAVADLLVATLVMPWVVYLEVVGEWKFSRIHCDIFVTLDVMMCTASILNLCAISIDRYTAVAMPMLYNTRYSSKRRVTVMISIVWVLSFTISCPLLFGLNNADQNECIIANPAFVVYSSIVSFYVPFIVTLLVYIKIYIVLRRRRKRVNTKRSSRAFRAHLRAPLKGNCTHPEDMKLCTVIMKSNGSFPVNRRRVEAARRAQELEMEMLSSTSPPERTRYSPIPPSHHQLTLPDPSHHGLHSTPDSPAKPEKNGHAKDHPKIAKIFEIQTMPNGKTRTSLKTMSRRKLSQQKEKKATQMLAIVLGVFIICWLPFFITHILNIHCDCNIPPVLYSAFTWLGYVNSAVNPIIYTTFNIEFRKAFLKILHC
Description: as §1, §2, §3

[8] = biological target: M1 muscarinic receptors (Homo sapiens, UniProt P11229); experiment: Radioligand binding assay
Sequence of M1 muscarinic receptors (P11229 whole entry): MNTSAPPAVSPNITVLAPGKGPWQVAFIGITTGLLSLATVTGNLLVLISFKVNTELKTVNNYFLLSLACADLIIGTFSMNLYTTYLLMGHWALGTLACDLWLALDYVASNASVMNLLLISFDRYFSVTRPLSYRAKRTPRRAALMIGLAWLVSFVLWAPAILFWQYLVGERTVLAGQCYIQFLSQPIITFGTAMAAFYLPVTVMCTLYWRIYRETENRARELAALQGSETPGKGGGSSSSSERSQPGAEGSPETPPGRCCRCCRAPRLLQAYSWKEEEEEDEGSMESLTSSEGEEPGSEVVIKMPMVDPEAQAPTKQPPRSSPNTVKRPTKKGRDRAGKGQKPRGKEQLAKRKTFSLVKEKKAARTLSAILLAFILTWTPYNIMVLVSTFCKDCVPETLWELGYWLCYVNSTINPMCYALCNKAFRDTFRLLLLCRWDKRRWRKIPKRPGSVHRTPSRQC
Description: as §1, §2, §3

[9] = system: tissue norepinephrine and dopamine levels; experiment: Tissue catecholamines in Sprague-Dawley rats after 10 days b.i.d. dosing; assay type: in vivo; settings: for dopamine/norepinephrine ratio vs vehicle: 2.0 and 6.2 mg/kg b.i.d., day 10, hydrochloride; for norepinephrine levels vs vehicle: 2.0 and 6.2 mg/kg
Description: Male Sprague-Dawley rats, weighing 180-200 grams, were fed an iodine deficient diet (Purina, 5891C, Lot 1478, 0.066±0.042 mg iodine/kg sample) ad libitum 14 days prior to treatment. Animals were weighed and randomly assigned to one of the following treatment groups (n=12 per group): nepicastat at 2.0 mg/kg, nepicastat at 6.2 mg/kg, Methimazole at 1 mg/kg, or vehicle at 1 ml/kg. Each group of rats was dosed orally in the evening and the following morning, approximately 12 hours apart, for 10 consecutive days.
At four hours after the second dose, on day 10, rats were anesthetized with halothane, decapitated, and the cortex, striatum, and mesenteric artery were harvested and weighed. Tissue samples were not harvested from the methimazole groups as they only served as positive controls for determination of thyroid function. The mesenteric artery, cortex, and striatum were immediately placed in 0.4 M iced perchloric acid and analyzed for norepinephrine and dopamine levels the same day using HPLC.
To statistically evaluate changes in T3 and T4 levels, a change from baseline was calculated from the day −3 time point. A non-parametric two-way within subject analysis of variance (ANOVA) was conducted. Also a one-way ANOVA was performed to detect if a significant difference from control occurred. Pairwise analyses between controls and each treatment group were carried out using Fisher's LSD strategy to control the experiment-wise error rate. For statistical analysis of catecholamine levels, a one-way ANOVA with factor DOSE was performed. Pairwise analyses between treated and controls at each dose were carried out using Fisher's LSD strategy to control the experiment-wise error rate.

[10] = system: normotensive Wistar rats; experiment: 7 day radio-telemetry study in normotensive Wistar rats
Description: Male Crl:COBS(WI)BR rats of 15 weeks old were used.
Both nepicastat and hydralazine were prepared in water with traces of Tween 80. All doses were given orally to the rat in 10 ml/kg and were expressed as free base equivalents.
All values were expressed as means±SEM. Statistical significance was defined as a p level of less than 0.05.
Body weights were recorded daily.

[11] = system: mice; experiment: Clinical observations and behavioral tests in mice, single oral dose; assay type: in vivo
Description: A single oral dose of vehicle or nepicastat formulation was administered by gavage to each mouse using a rodent intubator. The oral route was selected because it is a proposed clinical route of administration. Dose volumes were calculated on the basis of individual body weights recorded before dosing (body weight data are not tabulated in this report). Food and water were withheld from the mice 2.5 to 3.5 hours before dosing, instead of 1.5 hours as specified in the protocol.
Clinical observations were recorded before dosing. Beginning 60 minutes after dosing, mice in each treatment group were evaluated in groups of up to 3 over an interval of approximately 10 minutes each for clinical observations and protocol-specified behavioral tests. One mouse in the 30-mg/kg group and 1 mouse in the 100-mg/kg group died after dosing and they were removed from the study. Surviving mice were euthanatized and removed from the study at the end of the observation/testing period.
[…] Clinical observations and behavioral tests were initiated 60 minutes after administration of the test formulation. At the end of the observation period, all surviving mice were euthanatized and removed from the study.

[12] = Safety and tolerability in squirrel monkeys; assay type: in vivo
Description: Six squirrel monkeys, three non-lesioned and three lesioned (received 2 mg/kg MPTP 3 months prior), were used to study safety and tolerability of nepicastat. Animals received nepicastat at a concentration of 0.5, 2.0, or 5.0 mg/kg twice daily, (10 am and 2 pm), for 5 days with a two-day washout between the different dose levels. Nepicastat was administered via oral syringe at the 0.5, 2.0 […] mg/kg doses and as oral gavage at the 5.0 mg/kg dose.

[13] = system: plasma dopamine/norepinephrine ratio, urinary dopamine; experiment: Plasma and urinary catecholamines in normal volunteers; assay type: in vivo, human
Description: Nepicastat reduces the conversion of dopamine to norepinephrine. Basic tests for nepicastat activity measure the levels of plasma or urinary dopamine or the ratio of dopamine to norepinephrine. Nepicastat treatment can increase plasma or urinary levels of dopamine or increase the dopamine/norepinephrine ratio in plasma or urine.
Shown in FIG. 5, are the levels in urinary dopamine levels in normal volunteers after 24 hour treatment with nepicastat.
Urinary dopamine levels increased after 10 days of dosing with both 40 mg and 200 mg of nepicastat.

[14] = 30, 100, 300 mg/kg single oral dose

Cl.NCc1c[nH]c(=S)n1[C@H]1CCc2c(F)cc(F)cc2C1 [nepicastat, (S)-5-Aminomethyl-1-(5,7-difluoro-1,2,3,4-tetrahydronaphth-2-yl)-2,3-dihydro-2-thioxo-1H-imidazole hydrochloride]
subjects who developed a rash ([1]; 200 mg for 8 days or longer): Five of the 6 subjects | tolerability, multiple-dose Phase I study ([1]; 5 and 40 mg, healthy men): generally well tolerated | effect on mood, sleep, cognition ([1]; 5 or 40 mg): no significant impairment of mood, sleep, or cognition | tolerability, single-dose Phase I studies ([1]; 5 to 800 mg, healthy men): generally well tolerated | cardiac adverse event in one subject ([1]; after 6 days of dosing with 200 mg): atrial arrhythmias and intermittent right bundle branch block | thyroid uptake of 123I vs placebo ([2]; 5, 40 and 100 mg): no differences from placebo | reduction of thyroid uptake of 123I vs placebo ([2]; single 200 mg dose): significantly greater than placebo | Ki [3]: > 10 µM | Ki [4]: > 10 µM | Ki [5]: > 10 µM | Ki [6]: > 10 µM | Ki [7]: > 10 µM | Ki [8]: > 10 µM | dopamine levels vs vehicle ([9]; all three tissues, 2.0 or 6.2 mg/kg): not significantly (p>0.05) different | dopamine/norepinephrine ratio vs vehicle ([9]; cortex (and striatum)): not in the cortex; also recorded: not significantly (p>0.05) different | norepinephrine levels vs vehicle ([9]; cortex): not significantly (p>0.05) different | norepinephrine levels vs vehicle ([9]; mesenteric artery): significantly (p<0.05) lower | dopamine/norepinephrine ratio vs vehicle ([9]; mesenteric artery): significantly raised; also recorded: significantly (p<0.05) higher | norepinephrine levels vs vehicle ([9]; striatum): marginally (p<0.10) lower | peak decrease in blood pressure ([10]; 30 mg/kg/d, day 2): −10 mmHg | peak antihypertensive response on day 1 ([10]; 100 mg/kg, 22 hr after dosing): −11 mmHg | clinical or gross behavior changes [11, 14]: No treatment-related clinical or gross behavior changes | rectal body temperature vs vehicle-control [11, 14]: Lower body temperatures | gross motor behavior ([11]; acute 1.0-30 mg/kg p.o.): no significant effects on gross motor behavior | deaths after dosing ([11]; one mouse each at 30 and 100 mg/kg): the deaths were considered incidental | adverse finding in one non-lesioned monkey ([12]; 5.0 mg/kg twice daily, final two days): light beige colored loose stools | tolerability ([12]; 0.5 and 2.0 mg/kg twice daily, 5 days): well tolerated at the two lower doses | urinary dopamine levels ([13]; 40 mg and 200 mg, after 10 days of dosing): increased | mean supine plasma dopamine/norepinephrine ratio vs placebo ([13]; 200 mg): significant increase
